Columns and labels:
[1] = molecular target: T1, Human melanocortin (MC5) (Homo sapiens, UniProt P33032); assay: Radioligand binding, human melanocortin MC5 membranes, FlashPlate, [125I]-NDP-αMSH; details: compound at 10 μM, [125I]-NDP-αMSH
T1 construct: purchased Perkin Elmer Biosignal
Summary of the method: (§1)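 Cloned human receptor membranes were coated onto FlashPlate wells and incubated with radioligand and compound (added from a 0.5 mM DMSO daughter plate) for 1 hour at room temperature in the dark. Scintillation counting gave percent inhibition, with DMSO defining total and reference ligand defining non-specific binding.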

[2] = molecular target: T2, Mouse urotensin (mUR2) (Mus musculus, UniProt Q8VIH9); assay: Radioligand binding, mouse urotensin mUR2 membranes, FlashPlate, [125I]-Urotensin II; details: compound at 10 μM, [125I]-Urotensin II
T2 construct: purchased Perkin Elmer Biosignal
T2 sequence (Q8VIH9 1-385): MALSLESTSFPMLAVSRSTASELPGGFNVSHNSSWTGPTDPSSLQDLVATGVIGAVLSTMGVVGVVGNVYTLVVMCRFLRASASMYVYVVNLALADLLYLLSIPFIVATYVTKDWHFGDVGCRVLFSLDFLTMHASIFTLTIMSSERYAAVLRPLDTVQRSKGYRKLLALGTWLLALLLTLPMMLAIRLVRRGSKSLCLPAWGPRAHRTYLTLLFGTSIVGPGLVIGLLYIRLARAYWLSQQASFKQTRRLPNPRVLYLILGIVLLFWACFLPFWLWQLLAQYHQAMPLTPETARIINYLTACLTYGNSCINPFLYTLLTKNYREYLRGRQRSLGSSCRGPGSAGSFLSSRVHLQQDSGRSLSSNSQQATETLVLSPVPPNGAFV
Summary of the method: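 Cloned mouse urotensin (mUR2) receptor membranes from Perkin Elmer Biosignal were immobilized in FlashPlate microplates using a proprietary coating. Each well got 19.5 μl buffer, then 0.5 μl of DMSO, reference ligand, or compound. Adding 5 μl of [125I]-Urotensin II, diluted to 5× final concentration in binding buffer, started binding. Plates were sealed with TopSeal-A and incubated 1 hour at room temperature in the dark. Wells were counted for 30 seconds each on a TopCount after a 60-second delay, and percentage inhibition was calculated.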

[3] = molecular target: T3, Human neuropeptide Y (NPY-Y1) (Homo sapiens, UniProt P25929); assay: Radioligand binding, human neuropeptide Y NPY-Y1 membranes, FlashPlate, [125I]-PYY; details: compound at 10 μM, [125I]-PYY
T3 construct: purchased Perkin Elmer Biosignal
T3 sequence (P25929 1-384): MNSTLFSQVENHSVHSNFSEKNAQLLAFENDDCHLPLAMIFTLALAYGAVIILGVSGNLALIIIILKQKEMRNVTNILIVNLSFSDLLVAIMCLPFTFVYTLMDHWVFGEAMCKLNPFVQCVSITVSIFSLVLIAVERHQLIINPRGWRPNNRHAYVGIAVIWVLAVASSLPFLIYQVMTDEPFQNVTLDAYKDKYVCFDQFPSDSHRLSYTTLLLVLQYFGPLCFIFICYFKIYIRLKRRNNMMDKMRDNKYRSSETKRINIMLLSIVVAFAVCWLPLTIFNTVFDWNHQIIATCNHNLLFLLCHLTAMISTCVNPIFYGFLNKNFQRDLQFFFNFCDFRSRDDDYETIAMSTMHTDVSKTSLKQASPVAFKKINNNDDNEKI
Summary of the method: as §1

[4] = molecular target: T4, Human opioid (ORL1) (Homo sapiens, UniProt P41146); assay: Radioligand binding, human opioid ORL1 membranes, FlashPlate, [125I]-Nociceptin; details: compound at 10 μM, [125I]-Nociceptin
T4 construct: purchased Perkin Elmer Biosignal
T4 sequence (P41146 whole entry): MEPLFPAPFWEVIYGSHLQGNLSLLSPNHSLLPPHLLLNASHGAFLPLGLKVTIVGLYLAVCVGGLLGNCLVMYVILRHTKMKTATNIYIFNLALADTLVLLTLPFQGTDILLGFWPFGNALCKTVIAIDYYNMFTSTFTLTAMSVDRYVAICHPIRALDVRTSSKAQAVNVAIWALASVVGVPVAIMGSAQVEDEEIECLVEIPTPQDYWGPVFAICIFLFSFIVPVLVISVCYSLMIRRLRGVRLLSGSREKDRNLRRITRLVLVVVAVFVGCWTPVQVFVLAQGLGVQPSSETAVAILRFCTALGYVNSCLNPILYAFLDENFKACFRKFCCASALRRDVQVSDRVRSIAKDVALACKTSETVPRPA
Summary of the method: as §1

[5] = molecular target: T5, Human melanin-concentrating hormone (MCH1) (Homo sapiens, UniProt Q99705); assay: Radioligand binding, human melanin-concentrating hormone MCH1 membranes, FlashPlate, [125I]-S36057; details: compound at 10 μM
T5 construct: purchased Perkin Elmer Biosignal
T5 sequence (Q99705 whole entry): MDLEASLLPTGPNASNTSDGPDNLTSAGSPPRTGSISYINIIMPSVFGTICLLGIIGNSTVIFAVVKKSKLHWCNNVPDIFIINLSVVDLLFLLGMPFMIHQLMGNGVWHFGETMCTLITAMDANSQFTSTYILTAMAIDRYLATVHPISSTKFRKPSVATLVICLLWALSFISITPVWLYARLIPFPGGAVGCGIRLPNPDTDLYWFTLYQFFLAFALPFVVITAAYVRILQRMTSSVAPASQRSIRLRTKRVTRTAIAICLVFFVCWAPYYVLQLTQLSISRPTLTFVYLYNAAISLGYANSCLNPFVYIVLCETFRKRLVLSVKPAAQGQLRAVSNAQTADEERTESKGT
Summary of the method: as §1

[6] = molecular target: T6, Human Melanocortin (MC4) (Homo sapiens, UniProt P32245); assay: Radioligand binding, human melanocortin MC4 membranes, FlashPlate, [125I]-NDP-αMSH; details: compound at 10 μM, [125I]-NDP-αMSH
T6 construct: purchased Perkin Elmer Biosignal
T6 sequence (P32245 whole entry): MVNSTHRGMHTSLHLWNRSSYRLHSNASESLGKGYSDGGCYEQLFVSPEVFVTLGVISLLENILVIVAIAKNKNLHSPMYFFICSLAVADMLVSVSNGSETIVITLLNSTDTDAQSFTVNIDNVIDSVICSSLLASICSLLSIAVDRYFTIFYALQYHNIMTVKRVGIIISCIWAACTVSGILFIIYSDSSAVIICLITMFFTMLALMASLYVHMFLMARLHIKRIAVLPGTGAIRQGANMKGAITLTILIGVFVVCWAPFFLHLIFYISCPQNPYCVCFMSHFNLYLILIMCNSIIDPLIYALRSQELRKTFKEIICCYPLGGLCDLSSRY
Summary of the method: as §1

[7] = molecular target: T7, Human Melanocortin (MC3) (Homo sapiens, UniProt P41968); assay: Radioligand binding, human melanocortin MC3 membranes, FlashPlate, [125I]-NDP-αMSH; details: compound at 10 μM, [125I]-NDP-αMSH
T7 construct: purchased Perkin Elmer Biosignal
T7 sequence (P41968 whole entry): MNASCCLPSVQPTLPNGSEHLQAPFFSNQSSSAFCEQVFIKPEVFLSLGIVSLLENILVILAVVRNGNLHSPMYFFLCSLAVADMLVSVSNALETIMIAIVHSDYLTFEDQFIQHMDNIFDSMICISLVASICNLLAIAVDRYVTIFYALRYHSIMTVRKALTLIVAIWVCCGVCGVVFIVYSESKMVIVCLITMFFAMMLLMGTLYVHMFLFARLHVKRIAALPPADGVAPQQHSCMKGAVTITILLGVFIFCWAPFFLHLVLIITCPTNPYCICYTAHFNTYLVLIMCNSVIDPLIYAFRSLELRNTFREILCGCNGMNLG
Summary of the method: as §1

[8] = molecular target: T8, Human μ-opioid (MOP) (Homo sapiens, UniProt P35372); assay: Radioligand binding, human μ-opioid (MOP) membranes, FlashPlate, [3H]-Naloxone; details: compound at 10 μM, [3H]-Naloxone
T8 construct: purchased Perkin Elmer Biosignal
T8 sequence (P35372 whole entry): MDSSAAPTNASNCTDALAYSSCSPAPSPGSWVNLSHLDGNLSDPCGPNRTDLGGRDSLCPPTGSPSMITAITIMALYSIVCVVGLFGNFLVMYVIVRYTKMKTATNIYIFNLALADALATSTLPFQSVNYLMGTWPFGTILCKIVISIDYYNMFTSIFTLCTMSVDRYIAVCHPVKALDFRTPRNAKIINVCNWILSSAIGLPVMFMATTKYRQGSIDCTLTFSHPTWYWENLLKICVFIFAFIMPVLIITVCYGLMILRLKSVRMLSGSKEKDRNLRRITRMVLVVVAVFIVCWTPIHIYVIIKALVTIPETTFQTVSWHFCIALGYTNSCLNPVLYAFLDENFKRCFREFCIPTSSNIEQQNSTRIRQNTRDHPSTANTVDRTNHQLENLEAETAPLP
Summary of the method: as §1

[9] = molecular target: T9, Human δ-opioid (DOP) (Homo sapiens, UniProt P41143); assay: Radioligand binding, human δ-opioid (DOP) membranes, FlashPlate, [3H]-Bremazocine; details: compound at 10 μM, [3H]-Bremazocine
T9 construct: purchased Perkin Elmer Biosignal
T9 sequence (P41143 whole entry): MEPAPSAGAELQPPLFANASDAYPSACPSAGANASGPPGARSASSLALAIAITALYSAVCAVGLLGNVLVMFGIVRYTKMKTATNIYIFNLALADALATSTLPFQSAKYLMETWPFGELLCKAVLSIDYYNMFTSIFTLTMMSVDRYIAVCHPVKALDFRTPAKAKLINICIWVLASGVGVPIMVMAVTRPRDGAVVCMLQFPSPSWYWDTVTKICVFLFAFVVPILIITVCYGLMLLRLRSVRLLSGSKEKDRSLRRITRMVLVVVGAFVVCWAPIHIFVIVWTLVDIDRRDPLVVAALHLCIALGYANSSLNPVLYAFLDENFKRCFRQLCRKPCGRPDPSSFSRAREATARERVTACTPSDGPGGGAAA
Summary of the method: as §1

[10] = molecular target: T10, Human κ-Opioid (KOP) (Homo sapiens, UniProt P41145); assay: Radioligand binding, human κ-opioid (KOP) membranes, filtration, [3H]-Diprenorphine; details: compound at 10 μM, [3H]-Diprenorphine
T10 construct: purchased Perkin Elmer Biosignal
T10 sequence (P41145 whole entry): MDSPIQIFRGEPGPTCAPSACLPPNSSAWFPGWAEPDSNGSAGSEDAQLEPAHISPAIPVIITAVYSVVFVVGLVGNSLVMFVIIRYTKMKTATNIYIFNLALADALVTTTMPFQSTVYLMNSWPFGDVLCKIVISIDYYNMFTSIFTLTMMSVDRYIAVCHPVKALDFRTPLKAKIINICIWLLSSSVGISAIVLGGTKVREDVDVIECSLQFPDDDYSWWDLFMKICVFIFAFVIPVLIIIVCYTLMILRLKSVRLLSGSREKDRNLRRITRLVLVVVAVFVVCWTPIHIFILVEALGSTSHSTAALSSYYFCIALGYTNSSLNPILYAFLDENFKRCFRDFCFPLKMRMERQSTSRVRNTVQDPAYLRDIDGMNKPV
Summary of the method: (§2)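 Filtration binding on cloned human receptor membranes (1 Unit/well), [125I]-Substance P for NK1 and [3H]-Diprenorphine for KOP, 1 h at room temperature. Filters PEI-presoaked, washed with cold 50 mM Tris-HCl pH 7.4, counted by scintillation; percent inhibition calculated, reference ligand defining non-specific binding.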

[11] = molecular target: T11, Human neurokinin (NK1) (Homo sapiens, UniProt P25103); assay: Radioligand binding, human neurokinin NK1 membranes, filtration, [125I]-Substance P; details: compound at 10 μM, [125I]-Substance P
T11 construct: purchased Perkin Elmer Biosignal
T11 sequence (P25103 whole entry): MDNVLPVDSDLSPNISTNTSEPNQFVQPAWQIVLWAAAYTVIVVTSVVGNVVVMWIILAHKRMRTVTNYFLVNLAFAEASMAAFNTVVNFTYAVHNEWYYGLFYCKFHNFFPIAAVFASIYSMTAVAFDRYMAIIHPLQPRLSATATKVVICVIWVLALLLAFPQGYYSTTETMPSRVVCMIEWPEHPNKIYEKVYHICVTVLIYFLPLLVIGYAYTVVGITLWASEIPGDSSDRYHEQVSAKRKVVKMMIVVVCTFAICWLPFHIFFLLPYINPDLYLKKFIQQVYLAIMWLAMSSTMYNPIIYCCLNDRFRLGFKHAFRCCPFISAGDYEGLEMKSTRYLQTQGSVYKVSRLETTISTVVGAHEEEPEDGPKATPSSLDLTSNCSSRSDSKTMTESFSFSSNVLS
Summary of the method: as §2

[12] = [125I]-S36057, human MCH1 membranes

T1 sequence (P33032 whole entry): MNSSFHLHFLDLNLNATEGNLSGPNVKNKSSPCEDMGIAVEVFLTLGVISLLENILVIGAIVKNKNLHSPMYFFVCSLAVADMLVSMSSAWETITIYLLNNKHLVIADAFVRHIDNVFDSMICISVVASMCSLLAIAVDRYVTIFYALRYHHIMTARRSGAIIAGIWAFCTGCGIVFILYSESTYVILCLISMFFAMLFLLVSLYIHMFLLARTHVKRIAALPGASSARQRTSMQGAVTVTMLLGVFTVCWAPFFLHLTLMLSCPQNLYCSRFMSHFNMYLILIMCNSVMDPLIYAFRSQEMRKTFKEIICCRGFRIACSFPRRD

SMILES: N=C(N)NCCC(=O)NC1C(OCc2ccc(Cl)cc2)OC(COCc2ccc(Cl)cc2)C(O)C1OCc1ccc(-c2ccccc2)cc1 (stereo not shown) [compound 434]
- A5: inhibition of radioligand binding ([1]; human MC5 membranes): + (“+” indicates greater than 50% inhibition at 10 μM)
- A11: inhibition of radioligand binding ([2]; mouse mUR2 membranes): − (“−” indicates less than 50% inhibition at 10 μM)
- A9: inhibition of radioligand binding ([3]; human NPY-Y1 membranes): − (“−” indicates less than 50% inhibition at 10 μM)
- A10: inhibition of radioligand binding ([4]; human ORL1 membranes): − (“−” indicates less than 50% inhibition at 10 μM)
- A6: inhibition of radioligand binding [5, 12]: + (“+” indicates greater than 50% inhibition at 10 μM)
- A4: inhibition of radioligand binding ([6]; human MC4 membranes): + (“+” indicates greater than 50% inhibition at 10 μM)
- A3: inhibition of radioligand binding ([7]; human MC3 membranes): + (“+” indicates greater than 50% inhibition at 10 μM)
- A7: inhibition of radioligand binding ([8]; human MOP membranes): − (“−” indicates less than 50% inhibition at 10 μM)
- A1: inhibition of radioligand binding ([9]; human DOP membranes): − (“−” indicates less than 50% inhibition at 10 μM)
- A2: inhibition of radioligand binding ([10]; human KOP membranes): − (“−” indicates less than 50% inhibition at 10 μM)
- A8: inhibition of radioligand binding ([11]; human NK1 membranes): + (“+” indicates greater than 50% inhibition at 10 μM)

SMILES: NCCC(=O)NC1C(OCc2ccc3ccccc3c2)OC(COCc2ccc3ccccc3c2)C(O)C1OCc1ccccc1 (stereo not shown) [compound 387]
- A5: inhibition of radioligand binding ([1]; human MC5 membranes): + (“+” indicates greater than 50% inhibition at 10 μM)
- A11: inhibition of radioligand binding ([2]; mouse mUR2 membranes): − (“−” indicates less than 50% inhibition at 10 μM)
- A9: inhibition of radioligand binding ([3]; human NPY-Y1 membranes): − (“−” indicates less than 50% inhibition at 10 μM)
- A10: inhibition of radioligand binding ([4]; human ORL1 membranes): − (“−” indicates less than 50% inhibition at 10 μM)
- A6: inhibition of radioligand binding [5, 12]: − (“−” indicates less than 50% inhibition at 10 μM)
- A4: inhibition of radioligand binding ([6]; human MC4 membranes): + (“+” indicates greater than 50% inhibition at 10 μM)
- A3: inhibition of radioligand binding ([7]; human MC3 membranes): + (“+” indicates greater than 50% inhibition at 10 μM)
- A7: inhibition of radioligand binding ([8]; human MOP membranes): − (“−” indicates less than 50% inhibition at 10 μM)
- A1: inhibition of radioligand binding ([9]; human DOP membranes): − (“−” indicates less than 50% inhibition at 10 μM)
- A2: inhibition of radioligand binding ([10]; human KOP membranes): − (“−” indicates less than 50% inhibition at 10 μM)
- A8: inhibition of radioligand binding ([11]; human NK1 membranes): + (“+” indicates greater than 50% inhibition at 10 μM)

SMILES: O=C(N[C@H]1C(NC(=O)C2CCNCC2)O[C@H](CO)[C@@H](O)[C@@H]1OCc1cccc2ccccc12)c1ccccc1 (stereo partly shown) [compound 363]
- A5: inhibition of radioligand binding, human melanocortin (MC5) [1]: − (“−” indicates less than 50% inhibition at 10 μM)
- A11: inhibition of radioligand binding, mouse urotensin (mUR2) [2]: − (“−” indicates less than 50% inhibition at 10 μM)
- A9: inhibition of radioligand binding, human neuropeptide Y (NPY-Y1) [3]: − (“−” indicates less than 50% inhibition at 10 μM)
- A10: inhibition of radioligand binding, human opioid (ORL1) [4]: − (“−” indicates less than 50% inhibition at 10 μM)
- A6: inhibition of radioligand binding, human melanin-concentrating hormone (MCH1) ([5]; [125I]-S36057): − (“−” indicates less than 50% inhibition at 10 μM)
- A4: inhibition of radioligand binding, human melanocortin (MC4) [6]: − (“−” indicates less than 50% inhibition at 10 μM)
- A3: inhibition of radioligand binding, human melanocortin (MC3) [7]: − (“−” indicates less than 50% inhibition at 10 μM)
- A7: inhibition of radioligand binding, human μ-opioid (MOP) [8]: − (“−” indicates less than 50% inhibition at 10 μM)
- A1: inhibition of radioligand binding, human δ-opioid (DOP) [9]: − (“−” indicates less than 50% inhibition at 10 μM)
- A2: inhibition of radioligand binding, human κ-opioid (KOP) [10]: − (“−” indicates less than 50% inhibition at 10 μM)
- A8: inhibition of radioligand binding, human neurokinin (NK1) [11]: + (“+” indicates greater than 50% inhibition at 10 μM)

SMILES: NCCCC(=O)NC1C(OCc2ccc3ccccc3c2)OC(COCc2ccccc2)C(O)C1OCc1ccc(Cl)cc1 (single isomer, unassigned) [compound 457]
- A5: inhibition of radioligand binding ([1]; human MC5 membranes, 10 µM): − (“−” indicates less than 50% inhibition at 10 μM)
- A11: inhibition of radioligand binding ([2]; mouse mUR2 membranes): − (“−” indicates less than 50% inhibition at 10 μM)
- A9: inhibition of radioligand binding ([3]; human NPY-Y1 membranes): − (“−” indicates less than 50% inhibition at 10 μM)
- A10: inhibition of radioligand binding ([4]; human ORL1 membranes, 10 µM): + (“+” indicates greater than 50% inhibition at 10 μM)
- A6: inhibition of radioligand binding ([5]; [125I]-S36057, human MCH1 membranes, 10 µM): − (“−” indicates less than 50% inhibition at 10 μM)
- A4: inhibition of radioligand binding ([6]; human MC4 membranes, 10 µM): − (“−” indicates less than 50% inhibition at 10 μM)
- A3: inhibition of radioligand binding ([7]; human MC3 membranes): − (“−” indicates less than 50% inhibition at 10 μM)
- A7: inhibition of radioligand binding ([8]; human MOP membranes, 10 µM): + (“+” indicates greater than 50% inhibition at 10 μM)
- A1: inhibition of radioligand binding ([9]; human DOP membranes): − (“−” indicates less than 50% inhibition at 10 μM)
- A2: inhibition of radioligand binding ([10]; human KOP membranes): − (“−” indicates less than 50% inhibition at 10 μM)
- A8: inhibition of radioligand binding ([11]; human NK1 membranes): + (“+” indicates greater than 50% inhibition at 10 μM)

SMILES: CSC1O[C@H](COCc2ccc(Cl)cc2)[C@@H](O)[C@@H](OCc2ccc(Cl)cc2)[C@H]1NC(=O)CCCN (stereo partly shown) [compound 273]
- A5: inhibition of radioligand binding ([1]; FlashPlate): − (“−” indicates less than 50% inhibition at 10 μM)
- A11: inhibition of radioligand binding ([2]; FlashPlate): − (“−” indicates less than 50% inhibition at 10 μM)
- A9: inhibition of radioligand binding ([3]; FlashPlate): − (“−” indicates less than 50% inhibition at 10 μM)
- A10: inhibition of radioligand binding ([4]; FlashPlate): − (“−” indicates less than 50% inhibition at 10 μM)
- A6: inhibition of radioligand binding ([5]; [125I]-S36057, FlashPlate): − (“−” indicates less than 50% inhibition at 10 μM)
- A4: inhibition of radioligand binding ([6]; FlashPlate): − (“−” indicates less than 50% inhibition at 10 μM)
- A3: inhibition of radioligand binding ([7]; FlashPlate): − (“−” indicates less than 50% inhibition at 10 μM)
- A7: inhibition of radioligand binding ([8]; FlashPlate): − (“−” indicates less than 50% inhibition at 10 μM)
- A1: inhibition of radioligand binding ([9]; FlashPlate): − (“−” indicates less than 50% inhibition at 10 μM)
- A2: inhibition of radioligand binding ([10]; filtration): − (“−” indicates less than 50% inhibition at 10 μM)
- A8: inhibition of radioligand binding ([11]; filtration): + (“+” indicates greater than 50% inhibition at 10 μM)

Source: US20080009418A1, “Selective Inhibitors” (Alchemia LTD., priority 2004, published 2008)
